Assay results: the CheMixHub viscosity set
± gives the uncertainty stated by the source.

Assay: xn = mol fraction of the nth substance listed

COC(C)(C)C + c1ccccc1
viscosity (293.15 K, 101.33 kPa, x1 = 0.0933): 0.629 ± 0.033 mPa·s
viscosity (293.15 K, 101.33 kPa, x1 = 0.1906): 0.5805 ± 0.031 mPa·s
viscosity (293.15 K, 101.33 kPa, x1 = 0.2994): 0.5449 ± 0.029 mPa·s
viscosity (293.15 K, 101.33 kPa, x1 = 0.3965): 0.5122 ± 0.027 mPa·s
viscosity (293.15 K, 101.33 kPa, x1 = 0.5143): 0.4813 ± 0.025 mPa·s
viscosity (293.15 K, 101.33 kPa, x1 = 0.6083): 0.4593 ± 0.024 mPa·s
viscosity (293.15 K, 101.33 kPa, x1 = 0.7015): 0.4466 ± 0.024 mPa·s
viscosity (293.15 K, 101.33 kPa, x1 = 0.8071): 0.416 ± 0.022 mPa·s
viscosity (293.15 K, 101.33 kPa, x1 = 0.9024): 0.4052 ± 0.022 mPa·s
viscosity (298.15 K, 101 kPa, x1 = 0.0502): 0.566 ± 0.02 mPa·s
viscosity (298.15 K, 101 kPa, x1 = 0.0999): 0.551 ± 0.019 mPa·s
viscosity (298.15 K, 101 kPa, x1 = 0.1994): 0.499 ± 0.018 mPa·s
viscosity (298.15 K, 101 kPa, x1 = 0.3005): 0.473 ± 0.017 mPa·s
viscosity (298.15 K, 101 kPa, x1 = 0.4006): 0.457 ± 0.017 mPa·s
viscosity (298.15 K, 101 kPa, x1 = 0.5003): 0.437 ± 0.016 mPa·s
viscosity (298.15 K, 101 kPa, x1 = 0.6): 0.422 ± 0.016 mPa·s
viscosity (298.15 K, 101 kPa, x1 = 0.7003): 0.397 ± 0.015 mPa·s
viscosity (298.15 K, 101 kPa, x1 = 0.8): 0.395 ± 0.015 mPa·s
viscosity (298.15 K, 101 kPa, x1 = 0.8997): 0.376 ± 0.015 mPa·s
viscosity (298.15 K, 101 kPa, x1 = 0.9497): 0.372 ± 0.014 mPa·s
viscosity (298.15 K, 101.33 kPa, x1 = 0.0933): 0.5806 ± 0.031 mPa·s
viscosity (298.15 K, 101.33 kPa, x1 = 0.1906): 0.5446 ± 0.029 mPa·s
viscosity (298.15 K, 101.33 kPa, x1 = 0.2994): 0.5084 ± 0.027 mPa·s
viscosity (298.15 K, 101.33 kPa, x1 = 0.3965): 0.4776 ± 0.025 mPa·s
viscosity (298.15 K, 101.33 kPa, x1 = 0.5143): 0.4676 ± 0.025 mPa·s
viscosity (298.15 K, 101.33 kPa, x1 = 0.6083): 0.4417 ± 0.023 mPa·s
viscosity (298.15 K, 101.33 kPa, x1 = 0.7015): 0.4227 ± 0.022 mPa·s
viscosity (298.15 K, 101.33 kPa, x1 = 0.8071): 0.4037 ± 0.021 mPa·s
viscosity (298.15 K, 101.33 kPa, x1 = 0.9024): 0.398 ± 0.021 mPa·s
viscosity (303.15 K, 101 kPa, x1 = 0.118): 0.536 ± 0.004 mPa·s
viscosity (303.15 K, 101 kPa, x1 = 0.2242): 0.51 ± 0.004 mPa·s
viscosity (303.15 K, 101 kPa, x1 = 0.3408): 0.483 ± 0.004 mPa·s
viscosity (303.15 K, 101 kPa, x1 = 0.5123): 0.445 ± 0.003 mPa·s
viscosity (303.15 K, 101 kPa, x1 = 0.6615): 0.413 ± 0.003 mPa·s
viscosity (303.15 K, 101 kPa, x1 = 0.8195): 0.382 ± 0.003 mPa·s

Clc1ccccc1 + c1ccccc1
viscosity (293.15 K, 101.33 kPa, x1 = 0.143): 0.6759 ± 0.0078 mPa·s
viscosity (293.3 K, 101.33 kPa, x1 = 0.028): 0.6845 ± 0.0079 mPa·s
viscosity (293.55 K, 101.33 kPa, x1 = 0.232): 0.711 ± 0.0082 mPa·s
viscosity (293.65 K, 101.33 kPa, x1 = 0.318): 0.7337 ± 0.0085 mPa·s
viscosity (298.15 K, 101 kPa, x1 = 0.08): 0.613 ± 0.017 mPa·s
viscosity (298.15 K, 101 kPa, x1 = 0.121): 0.62 ± 0.017 mPa·s
viscosity (298.15 K, 101 kPa, x1 = 0.162): 0.623 ± 0.017 mPa·s
viscosity (298.15 K, 101 kPa, x1 = 0.8): 0.718 ± 0.019 mPa·s
viscosity (298.15 K, 101 kPa, x2 = 0.1034): 0.7546 ± 0.0079 mPa·s
viscosity (298.15 K, 101 kPa, x2 = 0.2016): 0.7369 ± 0.0078 mPa·s
viscosity (298.15 K, 101 kPa, x2 = 0.303): 0.7233 ± 0.0077 mPa·s
viscosity (298.15 K, 101 kPa, x2 = 0.4022): 0.7072 ± 0.0076 mPa·s
viscosity (298.15 K, 101 kPa, x2 = 0.4985): 0.6923 ± 0.0075 mPa·s
viscosity (298.15 K, 101 kPa, x2 = 0.6048): 0.6743 ± 0.0074 mPa·s
viscosity (298.15 K, 101 kPa, x2 = 0.6994): 0.6625 ± 0.0074 mPa·s
viscosity (298.15 K, 101 kPa, x2 = 0.8033): 0.6462 ± 0.0073 mPa·s
viscosity (298.15 K, 101 kPa, x2 = 0.9031): 0.632 ± 0.0072 mPa·s
viscosity (303.15 K, 101 kPa, x2 = 0.1126): 0.7 ± 0.0089 mPa·s
viscosity (303.15 K, 101 kPa, x2 = 0.2016): 0.6977 ± 0.0076 mPa·s
viscosity (303.15 K, 101 kPa, x2 = 0.2221): 0.6855 ± 0.0087 mPa·s
viscosity (303.15 K, 101 kPa, x2 = 0.303): 0.6794 ± 0.0075 mPa·s
viscosity (303.15 K, 101 kPa, x2 = 0.3286): 0.6713 ± 0.0085 mPa·s
viscosity (303.15 K, 101 kPa, x2 = 0.4322): 0.6573 ± 0.0083 mPa·s
viscosity (303.15 K, 101 kPa, x2 = 0.4985): 0.652 ± 0.0073 mPa·s
viscosity (303.15 K, 101 kPa, x2 = 0.5331): 0.6432 ± 0.0082 mPa·s
viscosity (303.15 K, 101 kPa, x2 = 0.6048): 0.6347 ± 0.0072 mPa·s
viscosity (303.15 K, 101 kPa, x2 = 0.6314): 0.6285 ± 0.008 mPa·s
viscosity (303.15 K, 101 kPa, x2 = 0.6994): 0.6217 ± 0.0072 mPa·s
viscosity (303.15 K, 101 kPa, x2 = 0.7271): 0.6127 ± 0.0078 mPa·s
viscosity (303.15 K, 101 kPa, x2 = 0.8033): 0.6064 ± 0.0071 mPa·s
viscosity (303.15 K, 101 kPa, x2 = 0.8204): 0.5964 ± 0.0076 mPa·s
viscosity (303.15 K, 101 kPa, x2 = 0.9031): 0.5883 ± 0.007 mPa·s
viscosity (303.15 K, 101 kPa, x2 = 0.9113): 0.5798 ± 0.0074 mPa·s
viscosity (303.15 K, 101.33 kPa, x1 = 0.143): 0.6027 ± 0.007 mPa·s
viscosity (308.15 K, 101 kPa, x1 = 0.08): 0.537 ± 0.015 mPa·s
viscosity (308.15 K, 101 kPa, x1 = 0.121): 0.544 ± 0.015 mPa·s
viscosity (308.15 K, 101 kPa, x1 = 0.162): 0.547 ± 0.015 mPa·s
viscosity (308.15 K, 101 kPa, x2 = 0.303): 0.6411 ± 0.0072 mPa·s
viscosity (308.15 K, 101 kPa, x2 = 0.4022): 0.6281 ± 0.0072 mPa·s
viscosity (308.15 K, 101 kPa, x2 = 0.4985): 0.6109 ± 0.0071 mPa·s
viscosity (308.15 K, 101 kPa, x2 = 0.6048): 0.5958 ± 0.007 mPa·s
viscosity (308.15 K, 101 kPa, x2 = 0.6994): 0.5832 ± 0.007 mPa·s
viscosity (308.15 K, 101 kPa, x2 = 0.8033): 0.5679 ± 0.0069 mPa·s
viscosity (308.15 K, 101 kPa, x2 = 0.9031): 0.5512 ± 0.0068 mPa·s
viscosity (313.05 K, 101.33 kPa, x1 = 0.318): 0.5743 ± 0.0066 mPa·s
viscosity (313.15 K, 101 kPa, x2 = 0.303): 0.6041 ± 0.0071 mPa·s
viscosity (313.15 K, 101 kPa, x2 = 0.4022): 0.5902 ± 0.007 mPa·s
viscosity (313.15 K, 101 kPa, x2 = 0.4985): 0.5747 ± 0.0069 mPa·s
viscosity (313.15 K, 101 kPa, x2 = 0.6048): 0.5628 ± 0.0069 mPa·s
viscosity (313.15 K, 101 kPa, x2 = 0.6994): 0.5482 ± 0.0068 mPa·s
viscosity (313.15 K, 101 kPa, x2 = 0.8033): 0.5333 ± 0.0067 mPa·s
viscosity (313.15 K, 101 kPa, x2 = 0.9031): 0.5146 ± 0.0066 mPa·s
viscosity (313.15 K, 101.33 kPa, x1 = 0.028): 0.5278 ± 0.0061 mPa·s
viscosity (313.15 K, 101.33 kPa, x1 = 0.411): 0.5831 ± 0.0067 mPa·s
viscosity (313.25 K, 101.33 kPa, x1 = 0.143): 0.54 ± 0.0062 mPa·s
viscosity (313.25 K, 101.33 kPa, x1 = 0.232): 0.5469 ± 0.0064 mPa·s
viscosity (313.25 K, 101.33 kPa, x1 = 0.707): 0.6187 ± 0.0071 mPa·s
viscosity (313.35 K, 101.33 kPa, x1 = 0.512): 0.593 ± 0.0069 mPa·s
viscosity (313.75 K, 101.33 kPa, x1 = 0.073): 0.5223 ± 0.006 mPa·s
viscosity (313.75 K, 101.33 kPa, x1 = 0.568): 0.5979 ± 0.0069 mPa·s
viscosity (313.75 K, 101.33 kPa, x1 = 0.849): 0.6472 ± 0.0075 mPa·s
viscosity (318.15 K, 101 kPa, x1 = 0.08): 0.475 ± 0.013 mPa·s
viscosity (318.15 K, 101 kPa, x1 = 0.121): 0.482 ± 0.013 mPa·s
viscosity (318.15 K, 101 kPa, x1 = 0.162): 0.486 ± 0.013 mPa·s
viscosity (322.85 K, 101.33 kPa, x1 = 0.143): 0.5005 ± 0.0058 mPa·s
viscosity (323.15 K, 101 kPa, x1 = 0.08): 0.444 ± 0.012 mPa·s
viscosity (323.15 K, 101 kPa, x1 = 0.121): 0.451 ± 0.012 mPa·s
viscosity (323.15 K, 101 kPa, x1 = 0.162): 0.454 ± 0.012 mPa·s
viscosity (323.15 K, 101 kPa, x1 = 0.8): 0.541 ± 0.015 mPa·s
